Reference: patent publication US9474790B2, “Stable, protracted GLP-1/glucagon receptor co-agonists for medical use” (Novo Nordisk A/S, priority 2013, dated 2016)
Numbered stars: 1 amine (or outer) side, 2 acyl side, 3 side chain; on linkers, the order of the positions; unused ones are H or OH. Square brackets hold non-standard residues; d marks the D form. Side chains are listed from the residue outwards. Peptide text beside a SMILES is read from it. * marks the point of attachment. C18 diacid = O=C(O)CCCCCCCCCCCCCCCCC(=O)*; γGlu = O=C(O)[C@H](CCC(=O)[*:2])N[*:1]; Ac4c = NC1(C(=O)O)CCC1; AEEA = NCCOCCOCC(=O)O; Aib = CC(C)(N)C(=O)O

Each compound was assayed against T1, human glucagon receptor (Homo sapiens, UniProt P47871) (assay: Glucagon receptor potency, CRE luciferase reporter gene assay in BHK cells). Settings: BHK cells expressing human glucagon receptor, read-out: EC50 GlucR.
T1 construct: expressed in transfected cells; host or cells: BHK cells (parent BHK570, CRE luciferase clone BHK/KZ10-20-48), clone pLJ6'-4-25
T1 sequence (P47871 26-477): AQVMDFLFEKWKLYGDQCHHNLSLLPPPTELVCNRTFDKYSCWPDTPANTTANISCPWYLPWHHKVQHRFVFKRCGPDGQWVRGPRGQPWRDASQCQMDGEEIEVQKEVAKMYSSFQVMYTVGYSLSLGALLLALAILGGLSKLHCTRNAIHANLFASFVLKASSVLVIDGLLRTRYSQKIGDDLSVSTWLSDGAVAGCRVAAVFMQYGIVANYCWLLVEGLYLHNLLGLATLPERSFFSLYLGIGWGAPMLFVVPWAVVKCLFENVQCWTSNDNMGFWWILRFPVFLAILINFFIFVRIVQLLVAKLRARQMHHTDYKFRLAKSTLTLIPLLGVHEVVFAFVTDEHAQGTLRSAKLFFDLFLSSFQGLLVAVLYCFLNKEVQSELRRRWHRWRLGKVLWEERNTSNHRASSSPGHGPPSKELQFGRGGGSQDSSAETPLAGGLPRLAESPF
Type: cell-based
Outline: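 Stably transfected BHK cells (BHK570 background) expressing human glucagon receptor with CRE-firefly luciferase reporter, 5×10EE3 cells/well in DMEM/HEPES with 2% ovalbumin and 0.2% Pluronic F-68. Compounds 1×10EE-13 to 1×10EE-6 M final, 3 h at 37 °C; luminescence read, EC50 from four-parameter fit, in pM.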
In the case of `CC(C)C[C@H](NC(=O)[C@H](Cc1ccc(O)cc1)NC(=O)[C@H](CCCCN)NC(=O)[C@H](CO)NC(=O)[C@H](CC(C)C)NC(=O)[C@H](CC(=O)O)NC(=O)[C@H](CO)NC(=O)[C@@H](NC(=O)[C@H](Cc1ccccc1)NC(=O)[C@@H](NC(=O)CNC(=O)[C@H](CCC(N)=O)NC(=O)C(C)(C)NC(=O)[C@@H](N)Cc1c[nH]cn1)[C@@H](C)O)[C@@H](C)O)C(=O)N[C@@H](CCC(=O)O)C(=O)N[C@@H](CO)C(=O)N[C@@H](CCCCN)C(=O)N[C@@H](CCCNC(=N)N)C(=O)N[C@@H](C)C(=O)N[C@@H](CCCNC(=N)N)C(=O)N[C@@H](CCC(=O)O)C(=O)N[C@@H](Cc1ccccc1)C(=O)N[C@H](C(=O)N[C@@H](CCC(N)=O)C(=O)N[C@@H](Cc1c[nH]c2ccccc12)C(=O)N[C@@H](CC(C)C)C(=O)N[C@@H](CC(C)C)C(=O)N[C@@H](CCCCNC(=O)CC[C@H](NC(=O)CC[C@H](NC(=O)[C@H](CO)NC(=O)[C@H](CCC(=O)O)NC(=O)[C@H](CO)NC(=O)CC[C@H](NC(=O)CC[C@H](NC(=O)CCCCCCCCCCCCCCCCC(=O)O)C(=O)O)C(=O)O)C(=O)O)C(=O)O)C(=O)N[C@H](C(N)=O)[C@@H](C)O)C(C)C` [Example 54, N^ε28-[(4S)-4-carboxy-4-[[(4S)-4-carboxy-4-[[(2S)-2-[[(2S)-4-carboxy-2-[[(2S)-2-[[(4S)-4-carboxy-4-[[(4S)-4-carboxy-4-(17-carboxyheptadecanoylamino)butanoyl]amino]butanoyl]amino]-3-hydroxypropanoyl]amino]butanoyl]amino]-3-hydroxypropanoyl]amino]butanoyl]amino]butanoyl]-[Aib2,Leu10,Glu15,Lys17,Arg20,Glu21,Leu27,Lys28]-Glucagon amide] (H-H[Aib]QGTFTSDLSKYLESKRAREFVQWLLK([γGlu-γGlu-Ser-Glu-Ser-γGlu-γGlu-C18 diacid])T-NH2; N-terminus assumed), the EC50 is reported as 0.0127 nM. In the case of `CC(C)C[C@H](NC(=O)[C@H](Cc1ccc(O)cc1)NC(=O)[C@H](CCCNC(=N)N)NC(=O)[C@H](CO)NC(=O)[C@H](CC(C)C)NC(=O)[C@H](CC(=O)O)NC(=O)[C@H](CO)NC(=O)[C@@H](NC(=O)[C@H](Cc1ccccc1)NC(=O)[C@@H](NC(=O)CNC(=O)[C@H](CCC(N)=O)NC(=O)C1(NC(=O)[C@@H](N)Cc2c[nH]cn2)CCC1)[C@@H](C)O)[C@@H](C)O)C(=O)N[C@@H](CCC(=O)O)C(=O)N[C@@H](CO)C(=O)N[C@@H](CCCNC(=N)N)C(=O)N[C@@H](CCCNC(=N)N)C(=O)N[C@@H](C)C(=O)N[C@@H](CCCNC(=N)N)C(=O)N[C@@H](CCC(=O)O)C(=O)N[C@@H](Cc1ccccc1)C(=O)N[C@H](C(=O)N[C@@H](CCC(N)=O)C(=O)N[C@@H](Cc1c[nH]c2ccccc12)C(=O)N[C@@H](CC(C)C)C(=O)N[C@@H](CC(C)C)C(=O)N[C@@H](CCCCNC(=O)CC[C@H](NC(=O)CC[C@H](NC(=O)COCCOCCNC(=O)COCCOCCNC(=O)CC[C@H](NC(=O)CC[C@H](NC(=O)CCCCCCCCCCCCCCCCC(=O)O)C(=O)O)C(=O)O)C(=O)O)C(=O)O)C(=O)N[C@H](C(N)=O)[C@@H](C)O)C(C)C` [Example 59, N^ε28-[(4S)-4-carboxy-4-[[(4S)-4-carboxy-4-[[2-[2-[2-[[2-[2-[2-[[(4S)-4-carboxy-4-[[(4S)-4-carboxy-4-(17-carboxyheptadecanoylamino)butanoyl]amino]butanoyl]amino]ethoxy]ethoxy]acetyl]amino]ethoxy]ethoxy]acetyl]amino]butanoyl]amino]butanoyl]-[Acb2,Leu10,Arg12,Glu15,Arg20,Glu21,Leu27,Lys28]-Glucagon amide] (H-H[Ac4c]QGTFTSDLSRYLESRRAREFVQWLLK([γGlu-γGlu-AEEA-AEEA-γGlu-γGlu-C18 diacid])T-NH2; N-terminus assumed), the EC50 is reported as 0.017 nM. Compound `CC(C)C[C@H](NC(=O)[C@H](Cc1ccc(O)cc1)NC(=O)[C@H](CCCCN)NC(=O)[C@H](CO)NC(=O)[C@H](CC(C)C)NC(=O)[C@H](CC(=O)O)NC(=O)[C@H](CO)NC(=O)[C@@H](NC(=O)[C@H](Cc1ccccc1)NC(=O)[C@@H](NC(=O)CNC(=O)[C@H](CCC(N)=O)NC(=O)C(C)(C)NC(=O)[C@@H](N)Cc1c[nH]cn1)[C@@H](C)O)[C@@H](C)O)C(=O)N[C@@H](CCC(=O)O)C(=O)N[C@@H](CO)C(=O)N[C@@H](CCCNC(=N)N)C(=O)N[C@@H](CCCNC(=N)N)C(=O)N[C@@H](C)C(=O)N[C@@H](CCCNC(=N)N)C(=O)N[C@@H](CCC(=O)O)C(=O)N[C@@H](Cc1ccccc1)C(=O)N[C@H](C(=O)N[C@@H](CCC(N)=O)C(=O)N[C@@H](Cc1c[nH]c2ccccc12)C(=O)N[C@@H](CC(C)C)C(=O)N[C@@H](CC(C)C)C(=O)N[C@@H](CCCCNC(=O)CC[C@H](NC(=O)CC[C@H](NC(=O)COCCOCCNC(=O)COCCOCCNC(=O)CC[C@H](NC(=O)CC[C@H](NC(=O)CCCCCCCCCCCCCCCCC(=O)O)C(=O)O)C(=O)O)C(=O)O)C(=O)O)C(=O)N[C@H](C(N)=O)[C@@H](C)O)C(C)C` [Example 60, N^ε28-[(4S)-4-carboxy-4-[[(4S)-4-carboxy-4-[[2-[2-[2-[[2-[2-[2-[[(4S)-4-carboxy-4-[[(4S)-4-carboxy-4-(17-carboxyheptadecanoylamino)butanoyl]amino]butanoyl]amino]ethoxy]ethoxy]acetyl]amino]ethoxy]ethoxy]acetyl]amino]butanoyl]amino]butanoyl]-[Aib2,Leu10,Glu15,Arg20,Glu21,Leu27,Lys28]-Glucagon amide] (H-H[Aib]QGTFTSDLSKYLESRRAREFVQWLLK([γGlu-γGlu-AEEA-AEEA-γGlu-γGlu-C18 diacid])T-NH2; N-terminus assumed) has an EC50 of 0.054 nM. `CC(C)C[C@H](NC(=O)[C@H](Cc1ccc(O)cc1)NC(=O)[C@H](CCCNC(=N)N)NC(=O)[C@H](CO)NC(=O)[C@H](CC(C)C)NC(=O)[C@H](CC(=O)O)NC(=O)[C@H](CO)NC(=O)[C@@H](NC(=O)[C@H](Cc1ccccc1)NC(=O)[C@@H](NC(=O)CNC(=O)[C@H](CCC(N)=O)NC(=O)C(C)(C)NC(=O)[C@@H](N)Cc1c[nH]cn1)[C@@H](C)O)[C@@H](C)O)C(=O)N[C@@H](CC(=O)O)C(=O)N[C@@H](C)C(=O)N[C@@H](CCCNC(=N)N)C(=O)N[C@@H](CCCNC(=N)N)C(=O)N[C@@H](C)C(=O)N[C@@H](CCCNC(=N)N)C(=O)N[C@@H](CC(=O)O)C(=O)N[C@@H](Cc1ccccc1)C(=O)N[C@H](C(=O)N[C@@H](CCC(N)=O)C(=O)N[C@@H](Cc1c[nH]c2ccccc12)C(=O)N[C@@H](CC(C)C)C(=O)N[C@@H](CC(C)C)C(=O)N[C@@H](CCCCNC(=O)CC[C@H](NC(=O)CC[C@H](NC(=O)CC[C@H](NC(=O)CCCCCCCCCCCCCCCCC(=O)O)C(=O)O)C(=O)O)C(=O)O)C(=O)N[C@H](C(N)=O)[C@@H](C)O)C(C)C` [Example 62, N^ε28-[(4S)-4-carboxy-4-[[(4S)-4-carboxy-4-[[(4S)-4-carboxy-4-(17-carboxyheptadecanoylamino)butanoyl]amino]butanoyl]amino]butanoyl]-[Aib2,Leu10,Arg12,Ala16,Arg20,Leu27,Lys28]-Glucagon amide] (H-H[Aib]QGTFTSDLSRYLDARRARDFVQWLLK([γGlu-γGlu-γGlu-C18 diacid])T-NH2; N-terminus assumed) gave an EC50 of 0.01 nM. `CC(C)C[C@H](NC(=O)[C@H](Cc1ccc(O)cc1)NC(=O)[C@H](CCCCN)NC(=O)[C@H](CO)NC(=O)[C@H](CC(C)C)NC(=O)[C@H](CC(=O)O)NC(=O)[C@H](CO)NC(=O)[C@@H](NC(=O)[C@H](Cc1ccccc1)NC(=O)[C@@H](NC(=O)CNC(=O)[C@H](CCC(N)=O)NC(=O)C1(NC(=O)[C@@H](N)Cc2c[nH]cn2)CCC1)[C@@H](C)O)[C@@H](C)O)C(=O)N[C@@H](CCC(=O)O)C(=O)N[C@@H](CO)C(=O)N[C@@H](CCCNC(=N)N)C(=O)N[C@@H](CCCNC(=N)N)C(=O)N[C@@H](C)C(=O)N[C@@H](CCC(N)=O)C(=O)N[C@@H](CC(=O)O)C(=O)N[C@@H](Cc1ccccc1)C(=O)N[C@H](C(=O)N[C@@H](CCC(N)=O)C(=O)N[C@@H](Cc1c[nH]c2ccccc12)C(=O)N[C@@H](CC(C)C)C(=O)N[C@@H](CC(C)C)C(=O)N[C@@H](CCCCNC(=O)COCCOCCNC(=O)COCCOCCNC(=O)CC[C@H](NC(=O)CC[C@H](NC(=O)CC[C@H](NC(=O)CCCCCCCCCCCCCCCCC(=O)O)C(=O)O)C(=O)O)C(=O)O)C(=O)N[C@H](C(N)=O)[C@@H](C)O)C(C)C` [Example 63, N^ε28-[2-[2-[2-[[2-[2-[2-[[(4S)-4-carboxy-4-[[(4S)-4-carboxy-4-[[(4S)-4-carboxy-4-(17-carboxyheptadecanoylamino)butanoyl]amino]butanoyl]amino]butanoyl]amino]ethoxy]ethoxy]acetyl]amino]ethoxy]ethoxy]acetyl]-[Acb2,Leu10,Glu15,Leu27,Lys28]-Glucagon amide] (H-H[Ac4c]QGTFTSDLSKYLESRRAQDFVQWLLK([AEEA-AEEA-γGlu-γGlu-γGlu-C18 diacid])T-NH2; N-terminus assumed) showed an EC50 of 0.024 nM.
